Reference: patent publication US20140205631A1, “Stimulation of vaccination by angiotensin peptides” (University of Southern California, priority 2013, published 2014)

Legend:
[1] = test system: FIV-p24 antigen; assay: Serum IgG antibody titers (ELISA) after vaccination of cats; format: in vivo, feline immunodeficiency virus (FIV); conditions: for Serum IgG anti-FIVp24 antigen Titers: lowest dilution 1:20
Experimental: (§1) Animals: Eleven (11) female outbred cats>24 weeks old that were free of FIV, feline leukemia virus (FeLV) and feline infectious peritonitis virus were employed. The animals were restrained for the application of test articles to mucous membranes and collection of blood and mucosal secretions. Sedation, if necessary, was induced by subcutaneous administration of ketamine hydrochloride (22 mg/kg) and acepromazine maleate (0.1 mg/kg). Euthanasia was accomplished with a lethal overdose of barbiturates. All activities were approved by the Institutional Animal Care and Use Committee and supervised by veterinary staff.
(§2) Vaccine Preparation: Fel-O-Vax FIV (Fort Dodge Animal Health, Fort Dodge, Iowa) and A(1-7) was combined in a constant volume of 2% hydroxyethyl cellulose (2% HEC). The range of concentrations of A(1-7) ranged from 0 to 10 mg/mL with a constant 0.33 mL of Fel-O-Vax FIV suspended in each mL of the gel applied for vaccination purposes. Two control animals received intramuscular Fel-O-Vax FIV at baseline, week 3 and week 5. One control animal had mucosal vaccination with Fel-O-Vax alone suspended in the 2% HEC without A(1-7) and one control animal received intramuscular Fel-O-Vax FIV with 0.3 mg/kg of A(1-7) at baseline, week 3 and week 5.
(§3) Delivery of angiotensin(1-7) and FIV vaccine to mucosal surfaces: 2% HEC, a viscous gel, was used as the vehicle for the topical delivery of angiotensin(1-7) and FIV vaccine. The topical vaccine was applied to the mucosal surface weekly for 6 consecutive weeks. 1.0 mL was applied to the muzzle for oral mucosal vaccination and 1.0 mL and 0.2 mL was instilled in the rectal and vaginal vaults, respectively for mucosal vaccination at these sites.
(§4) The local immune response in mucosal secretions was evaluated against the homologous FIV-p24 antigen (Cell Biolabs, Inc, San Diego, Calif.) or the heterologous HIV-gp120 antigen (ImmunoDiagnostics, Inc, Woburn, Mass.). Plates were prepared with 50 ng/mL FIV-p24 antigen or with 500 ng/mL HIV-gp120 antigen (Bachem Americans, Inc, Torrance, Calif.) incubated over night at 4° C., washed and the target sample added and incubated overnight again at 4° C. The plates were washed and the indicator goat anti-feline IgG (Accurate Chemical & Scientific Corp., Westbury, N.Y., working titer 1:10,000) or goat anti-feline IgA (Accurate Chemical & Scientific Corp., Westbury, N.Y., working titer 1:1,000) added and incubated for 24 hours at 4° C. Following a final wash, substrate solution was added. The stop solution was added after 15 minutes for the IgG reaction and after 30 minutes for the IgA reaction. Plates were read at 450 nm.

[2] = test system: HIV-gp120 antigen; assay: Oral secretion SIgA antibody titers (ELISA) after vaccination of cats; format: in vivo, human immunodeficiency virus (HIV); conditions: for SIgA anti-HIV-gp120: oral, Week 8, lowest dilution 1:4, elution factor 4-fold
Experimental: as §1, §2, §3
(§5) Measurement of Local Immune Response: The Weck-Cel Surgical Spear (Windsor Biomedical, Newton, N.H.) was used to obtain secretions. Once inserted, the sponge is allowed to remain in place for 5 minutes. The secretions were extracted by centrifugation with 300 μL of a buffer solution. The buffer solution is prepared by mixing 50 μL of 100× protease inhibitor cocktail and 250 μL of 10% Igepal (Sigma, St Louis, Mo., U.S.A.) with 4.7 ml of phosphate-buffered saline (PBS) containing 0.25% bovine serum albumin (BSA, Fraction V; Sigma). The 100× protease inhibitor cocktail contains 100 μg/mL aprotinin, 500 μg/mL leupeptin, 100 μg/mL bestatin (all Sigma), and 50 μg/mL 4-(2-Aminoethyl)-benzenesulfonyl fluoride hydrochloride (Roche Applied Sciences, U.S.A.) in phosphate buffered saline.
as §4

[3] = test system: FIV-p24 antigen; assay: Vaginal secretion SIgA antibody titers (ELISA) after vaccination of cats; format: in vivo, feline immunodeficiency virus (FIV); conditions: for SIgA Anti-FIV-p24: vaginal, lowest dilution Undilute
Experimental: as §1, §2, §3, §5, §4

[4] = test system: FIV-p24 antigen; assay: Rectal secretion SIgA antibody titers (ELISA) after vaccination of cats; format: in vivo, feline immunodeficiency virus (FIV); conditions: for SIgA Anti-FIV-p24: rectal, lowest dilution Undilute
Experimental: as §1, §2, §3, §5, §4

[5] = test system: mucosal SIgA antibody production; assay: Local (mucosal) secretory IgA immune response after vaccination of cats, general statements; format: in vivo
Experimental: as §1
as §2, with “One control animal had mucosal vaccination with Fel-O-Vax alone suspended in the 2% HEC without A(1-7) and one control animal received intramuscular Fel-O-Vax FIV with 0.3 mg/kg of A(1-7) at baseline, week 3 and week 5.” left out
The local immune response in mucosal secretions was evaluated against the homologous FIV-p24 antigen (Cell Biolabs, Inc, San Diego, Calif.) or the heterologous HIV-gp120 antigen (ImmunoDiagnostics, Inc, Woburn, Mass.). […] Plates were read at 450 nm.

[6] = topical Fel-O-Vax FIV + 0.1 A(1-7) in 2% HEC, Week 4
[7] = topical Fel-O-Vax FIV + 0.1 A(1-7) in 2% HEC, Week 8
[8] = topical Fel-O-Vax FIV + 0.4 A(1-7) in 2% HEC, Week 4
[9] = topical Fel-O-Vax FIV + 5.0 A(1-7) in 2% HEC, Week 2
[10] = topical Fel-O-Vax FIV + 5.0 A(1-7) in 2% HEC, Week 4
[11] = topical Fel-O-Vax FIV + 5.0 A(1-7) in 2% HEC, Week 6
[12] = topical Fel-O-Vax FIV + 5.0 A(1-7) in 2% HEC, Week 8
[13] = topical Fel-O-Vax FIV + 7.5 A(1-7) in 2% HEC, Week 2
[14] = topical Fel-O-Vax FIV + 7.5 A(1-7) in 2% HEC, Week 4
[15] = topical Fel-O-Vax FIV + 7.5 A(1-7) in 2% HEC, Week 6
[16] = topical Fel-O-Vax FIV + 7.5 A(1-7) in 2% HEC, Week 8
[17] = topical Fel-O-Vax FIV + 10.0 A(1-7) in 2% HEC, Week 2
[18] = topical Fel-O-Vax FIV + 10.0 A(1-7) in 2% HEC, Week 4
[19] = topical Fel-O-Vax FIV + 10.0 A(1-7) in 2% HEC, Week 6
[20] = topical Fel-O-Vax FIV + 10.0 A(1-7) in 2% HEC, Week 8
[21] = IM Fel-O-Vax FIV + 0.3 mg/kg A(1-7), Week 4
[22] = IM Fel-O-Vax FIV + 0.3 mg/kg A(1-7), Week 6
[23] = topical Fel-O-Vax FIV + 0.1 A(1-7) in 2% HEC, Week 2
[24] = topical Fel-O-Vax FIV + 0.2 A(1-7) in 2% HEC, Week 2
[25] = topical Fel-O-Vax FIV + 0.2 A(1-7) in 2% HEC, Week 8
[26] = topical Fel-O-Vax FIV + 0.3 A(1-7) in 2% HEC, Week 6
[27] = topical Fel-O-Vax FIV + 0.3 A(1-7) in 2% HEC, Week 8

Asp-Arg-Val-Tyr-Ile-His-Pro (DRVYIHP) [A(1-7)]
Serum IgG anti-FIVp24 antigen Titers [1, 6]: Negative
Serum IgG anti-FIVp24 antigen Titers [1, 7]: Negative
Serum IgG anti-FIVp24 antigen Titers ([1]; topical Fel-O-Vax FIV + 0.2 A(1-7) in 2% HEC, Week 4): Negative
Serum IgG anti-FIVp24 antigen Titers [1, 8]: Negative
Serum IgG anti-FIVp24 antigen Titers ([1]; topical Fel-O-Vax FIV + 0.4 A(1-7) in 2% HEC, Week 8): Negative
Serum IgG anti-FIVp24 antigen Titers [1, 9]: Negative
Serum IgG anti-FIVp24 antigen Titers [1, 10]: Negative
Serum IgG anti-FIVp24 antigen Titers [1, 11]: Negative
Serum IgG anti-FIVp24 antigen Titers [1, 12]: Negative
Serum IgG anti-FIVp24 antigen Titers [1, 13]: Negative
Serum IgG anti-FIVp24 antigen Titers [1, 14]: Negative
Serum IgG anti-FIVp24 antigen Titers [1, 15]: Negative
Serum IgG anti-FIVp24 antigen Titers [1, 16]: Negative
Serum IgG anti-FIVp24 antigen Titers [1, 17]: Negative
Serum IgG anti-FIVp24 antigen Titers [1, 18]: Negative
Serum IgG anti-FIVp24 antigen Titers [1, 19]: Negative
Serum IgG anti-FIVp24 antigen Titers [1, 20]: Negative
dose response effect on serum IgG antibody titers to FIVp24 antigen ([1]; topical vaccination, increasing dose levels of A(1-7)): no discernible dose response effect
SIgA-HIV-gp120 antibodies in oral secretions ([2]; A(1-7) combined with the intramuscular injections of Fel-O-Vax FIV): even higher titers
dose response of oral SIgA-anti-HIV-gp120 antibody titers ([2]; increasing A(1-7) concentrations in the topical vaccine): initial raise and then decline
SIgA anti-HIV-gp120 ([2]; topical Fel-O-Vax FIV + 7.5 A(1-7) in 2% HEC): Negative
SIgA anti-HIV-gp120 ([2]; topical Fel-O-Vax FIV + 10.0 A(1-7) in 2% HEC): Negative
SIgA-anti-HIV-gp120 antibody titers in oral secretions ([2]; topical application of the FIV antigen and A(1-7), compared with intramuscular): Comparable levels
SIgA against FIV-p24 in vaginal secretions ([3]; Topical application of FIV antigen with A(1-7)): only low levels
SIgA Anti-FIV-p24 ([3]; IM Fel-O-Vax FIV + 0.3 mg/kg A(1-7), Week 2): Negative
SIgA Anti-FIV-p24 [3, 21]: Undilute
SIgA Anti-FIV-p24 [3, 22]: Undilute
SIgA Anti-FIV-p24 [3, 23]: Undilute
SIgA Anti-FIV-p24 [3, 6]: Undilute
SIgA Anti-FIV-p24 [3, 24]: Undilute
SIgA Anti-FIV-p24 [3, 25]: Undilute
SIgA Anti-FIV-p24 [3, 26]: Undilute
SIgA Anti-FIV-p24 [3, 27]: Negative
SIgA Anti-FIV-p24 [3, 9]: Negative
SIgA Anti-FIV-p24 [3, 10]: Negative
SIgA Anti-FIV-p24 [3, 11]: Negative
SIgA Anti-FIV-p24 [3, 12]: Negative
SIgA Anti-FIV-p24 [3, 13]: Negative
SIgA Anti-FIV-p24 [3, 14]: Negative
SIgA Anti-FIV-p24 [3, 15]: Negative
SIgA Anti-FIV-p24 [3, 16]: Negative
SIgA Anti-FIV-p24 [3, 17]: Negative
SIgA Anti-FIV-p24 [3, 19]: Negative
SIgA Anti-FIV-p24 [3, 20]: Negative
SIgA-anti-FIV-p24 (rectal, Table 4) ([4]; both methods of vaccination (parenteral or topical Fel-O-Vax FIV with A(1-7))): Low levels
mucosal anti-FIV antibodies in the rectum ([4]; injection of A(1-7) with FIV antigens): increased
SIgA Anti-FIV-p24 [4, 21]: Undilute
SIgA Anti-FIV-p24 [4, 22]: Negative
SIgA Anti-FIV-p24 ([4]; IM Fel-O-Vax FIV + 0.3 mg/kg A(1-7), Week 8): Undilute
SIgA Anti-FIV-p24 [4, 23]: Undilute
SIgA Anti-FIV-p24 ([4]; topical Fel-O-Vax FIV + 0.1 A(1-7) in 2% HEC, Week 6): Undilute
SIgA Anti-FIV-p24 [4, 7]: Undilute
SIgA Anti-FIV-p24 [4, 24]: Undilute
SIgA Anti-FIV-p24 ([4]; topical Fel-O-Vax FIV + 0.2 A(1-7) in 2% HEC, Week 6): Negative
SIgA Anti-FIV-p24 [4, 25]: Negative
SIgA Anti-FIV-p24 ([4]; topical Fel-O-Vax FIV + 0.3 A(1-7) in 2% HEC, Week 2): Undilute
SIgA Anti-FIV-p24 ([4]; topical Fel-O-Vax FIV + 0.3 A(1-7) in 2% HEC, Week 4): Undilute
SIgA Anti-FIV-p24 [4, 26]: Negative
SIgA Anti-FIV-p24 [4, 27]: Negative
SIgA Anti-FIV-p24 [4, 8]: Undilute
SIgA Anti-FIV-p24 ([4]; topical Fel-O-Vax FIV + 0.4 A(1-7) in 2% HEC, Week 6): Undilute
SIgA Anti-FIV-p24 [4, 10]: Negative
SIgA Anti-FIV-p24 [4, 11]: Negative
SIgA Anti-FIV-p24 [4, 12]: Negative
SIgA Anti-FIV-p24 [4, 13]: Negative
SIgA Anti-FIV-p24 [4, 14]: Negative
SIgA Anti-FIV-p24 [4, 16]: Negative
SIgA Anti-FIV-p24 [4, 17]: Negative
SIgA Anti-FIV-p24 [4, 18]: Negative
SIgA Anti-FIV-p24 [4, 19]: Negative
SIgA Anti-FIV-p24 [4, 20]: Negative
local secretory IgA immune responses ([5]; angiotensin (1-7) co-administered with killed FIV (Fel-O-Vax FIV) vaccine): dramatic increase
induction of SIgA antibody production at the mucosal surface ([5]; following A(1-7)+FIV immunization, two month period of observation): sustained
